US20030130264A1 (priority 2001, published 2003)

Assays:
[1] = system: recombinant human cytomegalovirus (HCMV); experiment: microbe, parasite or virus in culture; type: cell-based; conditions: Human betaherpesvirus 5, HFF
Description: For the assessment of activity against human CMV, a method was used which is similar to that described in Kohler, et al. (1994) J. Virol. 68:6589-6597. Briefly, a recombinant human cytomegalovirus (HCMV) was made containing a marker gene (luciferase) under the control of the promoter for the late 28 kDa viral structural phosphoprotein pp28. Human foreskin fibroblast (HFF) cells were infected with the recombinant HCMV virus (moi (multiplicity of infection) 5), placed into 96-well plates, and cultured under standard cell-culture conditions. […] The level of luciferase expression was measured 24 h after treatment with the test compounds. […] As an additional control, the cytotoxicity of test compounds on untreated HFF cells was also evaluated in cultured cell growth experiments.

| Structure (SMILES) | IC50 [1] [nM] | melting point [°C] |
| --- | --- | --- |
| Cc1cn(-c2nc(N(C)c3ccccc3)nc(C)c2[N+](=O)[O-])cn1 [t] | 10000 |  |
| Cc1nc(N(Cc2ccccc2)Cc2ccccc2)nc(-n2ccnc2C)c1[N+](=O)[O-] [Compound o] | 2000 |  |
| Cc1nc(NC2CCc3c(F)cc(F)cc32)nc(-n2ccnc2)c1[N+](=O)[O-] (centres unmarked) [2-(4,6-difluoro-1-indanamino)-4-imidazolyl-6-methyl-5-nitropyrimidine] | 100 to 500 |  |
| Cc1nc(N2CCC(C)CC2)nc(-n2ccnc2C)c1[N+](=O)[O-] [Compound p] | 300 |  |
| Cc1nc(NC2CCc3c(F)cc(F)cc32)nc(-n2ccnc2C)c1[N+](=O)[O-] (centres unmarked) [2-(4,6-difluoro-1-indanamino)-4-(2-methylimidazolyl)-6-methyl-5-nitropyrimidine] | 100 to 500 |  |
| Cc1nc(NC2Cc3ccccc3C2)nc(-n2ccnc2)c1[N+](=O)[O-] [2-(2-indanamino)-4-imidazolyl-6-methyl-5-nitropyrimidine] | > 500 |  |
| CCC(Nc1nc(C)c([N+](=O)[O-])c(-n2ccnc2)n1)c1ccccc1 (centres unmarked) [2-(1-phenyl-1-propylamino)-4-(imidazol-1-yl)-6-methyl-5-nitropyrimidine] | > 500 |  |
| CCc1nc(N(C)c2ccccc2)nc(-n2ccnc2C)c1[N+](=O)[O-] [c] | 100 |  |
| Cc1nc(NC2Cc3ccccc3C2)nc(-n2ccnc2C)c1[N+](=O)[O-] [2-(2-indanamino)-4-(2-methylimidazoyl)-6-methyl-5-nitropyrimidine] | > 500 |  |
| Cc1nc(-n2ccnc2C)nc(N(C)Cc2ccccc2)c1[N+](=O)[O-] [f] | 6000 |  |
| CCN(CC)c1nc(C)c([N+](=O)[O-])c(-n2ccnc2C)n1 [k] | 1000 |  |
| CCCCN(CC1CC1)c1nc(C)c([N+](=O)[O-])c(-n2ccnc2C)n1 [Compound q] | 3000 |  |
| Cc1nc(N(C)c2ccc(Cl)cc2)nc(-n2ccnc2C)c1[N+](=O)[O-] [g] | 800 |  |
| CCc1nccn1-c1nc(NC2CCc3c(F)cc(F)cc32)nc(C)c1[N+](=O)[O-] (centres unmarked) [2-(4,6-difluoro-1-indanamino)-4-(2-ethylimidazolyl)-6-methyl-5-nitropyrimidine] | 100 to 500 |  |
| CCCOc1nc(C)c([N+](=O)[O-])c(-n2ccnc2C)n1 [x, 2-(propyloxy)-4-(2-methylimidazol-1yl)-6-methyl-5-nitropyrimidine] | > 500 |  |
| Cc1nc(NCc2ccc(C(F)(F)F)cc2)nc(-n2ccnc2C)c1[N+](=O)[O-] [2-(4-trifluoromethylbenzylamino)-4-(2-methylimidazol-1-yl)-6-methyl-5-nitropyrimidine] | 100 to 500 |  |
| CCCCN(Cc1ccccc1)c1nc(C)c([N+](=O)[O-])c(-n2ccnc2C)n1 [Compound m] | 2000 |  |
| Cc1nccn1-c1nc(N(C)c2ccccc2)nc(C(C)C)c1[N+](=O)[O-] [h] | 300 |  |
| Cc1nc(NC2Cc3ccccc3C2)nc(-n2ccnc2C)c1[N+](=O)[O-].Cl |  | 184 to 185 |
| CC[C@H]1CCCCC1Nc1nc(C)c([N+](=O)[O-])c(-n2ccnc2)n1 (some centres unmarked) |  | 123 to 124 |
